Data set [1] concerns Staphylococcus epidermidis. The data set can be described thus: Antimicrobial activity against Staphylococcus epidermidis […] by CLSI method. The format is functional.
Another data set concerns Klebsiella pneumoniae. The data set can be described thus: Antimicrobial activity against Klebsiella pneumoniae NCTN9632 by CLSI method. The class given is functional.
Another data set has as its system Klebsiella aerogenes. The data set can be described thus: Antimicrobial activity against Enterobacter aerogenes NCTC10006 by CLSI method. The format is functional.
For another data set, the system named is Escherichia coli. The data set can be described thus: Antimicrobial activity against Escherichia coli NIHJ JC-2 by CLSI method. The class given is functional.
For data set [2], the system named is Micrococcus luteus. The data set can be described thus: Antimicrobial activity against Micrococcus luteus ATCC 21212 by CLSI method. The class given is functional.
The test system of data set [3] is THP-1. The data set can be described thus: Cytotoxicity against human THP1 cells using cell count reagent SF. The format is cell-based.
For data set [4], the system named is Micrococcus luteus. The data set can be described thus: Antimicrobial activity against Micrococcus luteus ATCC 9341 by CLSI method. The format is functional.
Data set [5] has as its system Staphylococcus aureus. Nature of the data set: Antimicrobial activity against Staphylococcus aureus Smith by CLSI method. The format is functional.
Data set [6] has as its system Acinetobacter calcoaceticus. Nature of the data set: Antimicrobial activity against Acinetobacter calcoaceticus IFO2552 by CLSI method. The class given is functional.
For a further data set, the system named is Serratia marcescens. Nature of the data set: Antimicrobial activity against Serratia marcescens IFO12648 by CLSI method. The class given is functional.
Data set [7] concerns Staphylococcus aureus. The data set can be described thus: Antimicrobial activity against Staphylococcus aureus 8325 (pEP2104) by CLSI method. The class given is functional.
Data set [8] deals with THP-1. Nature of the data set: Immunomodulatory activity in human THP1 cells assessed as differentiation of monocyte to macrophage after 4 days by MTT assay. The format is functional. Particulars: THP-1, 96 h, read-out: ED50 (the source's name). In general terms: Formazan colour is commonly taken as a measure of viable cells.
The subject of data set [9] is Staphylococcus aureus. The data set can be described thus: Antimicrobial activity against Staphylococcus aureus FDA209P by CLSI method. The format is functional.

In brackets after ≈: the same amount, converted by molar mass. Bounds are passed on as bounds.

On to `CC[C@@H](O)[C@@](C)(O)[C@@H]1OC(=O)[C@H](C)[C@@H](O[C@H]2C[C@@](C)(OC)[C@@H](O)[C@H](C)O2)[C@H](C)[C@@H](O[C@@H]2O[C@H](C)C[C@H](N(C)C)[C@H]2O)[C@@]2(C)C[C@@H](C)[C@H](O2)[C@@H]1C`, for which the MIC in data set [1] was greater than 128 µg/mL; in the data set on Klebsiella pneumoniae it was greater than 128 µg/mL; in the data set with Klebsiella aerogenes, greater than 128 µg/mL; against Escherichia coli, greater than 128 µg/mL; with Micrococcus luteus [2], greater than 128 µg/mL; with Micrococcus luteus [4], 128 µg/mL (≈ 178 µM). Further, the minimum inhibitory concentration (MIC) (in the data set on Staphylococcus aureus [5]; in data set [6]; in the data set with Serratia marcescens; against Staphylococcus aureus [7]; against Staphylococcus aureus [9]) was greater than 128 µg/mL in each case. The compound further yielded an Activity with THP-1 [3] of 100 µM. In addition, the EC50 with THP-1 [8] is 17.1 µM.

On to `CO[C@]1(C)C[C@H](O[C@H]2[C@H](C)[C@@H](O[C@@H]3O[C@H](C)C[C@H](N(C)C)[C@H]3O)[C@@]3(C)C[C@@H](C)[C@H](O3)[C@H](C)[C@H](C(C)=O)OC(=O)[C@@H]2C)O[C@@H](C)[C@@H]1O`, for which the Activity in the data set on THP-1 [3] stood at 100 µM. Further, the EC50 in the data set on THP-1 [8] was found to be 12.3 µM.

In the data set with THP-1 [3], `CO[C@]1(C)C[C@H](O[C@H]2[C@H](C)[C@@H](O[C@@H]3O[C@H](C)C[C@H](N(C)C)[C@H]3O)[C@@]3(C)C[C@@H](C)[C@H](O3)[C@H](C)[C@H](/C(C)=N/O)OC(=O)[C@@H]2C)O[C@@H](C)[C@@H]1O` displayed an Activity greater than 100 µM. In the data set on THP-1 [8], the EC50 was determined as 12.3 µM.

`CC[C@@H]1O[C@@]1(C)[C@@H]1OC(=O)[C@H](C)[C@@H](O[C@H]2C[C@@](C)(OC)[C@@H](O)[C@H](C)O2)[C@H](C)[C@@H](O[C@@H]2O[C@H](C)C[C@H](N(C)C)[C@H]2O)[C@@]2(C)C[C@@H](C)[C@H](O2)[C@@H]1C` yielded an Activity in the data set with THP-1 [3] of 100 µM. Moreover, the EC50 in the data set on THP-1 [8] came to 10.2 µM.

`CC[C@@H](OC(C)=O)[C@@](C)(O)[C@@H]1OC(=O)[C@H](C)[C@@H](O[C@H]2C[C@@](C)(OC)[C@@H](O)[C@H](C)O2)[C@H](C)[C@@H](O[C@@H]2O[C@H](C)C[C@H](N(C)C)[C@H]2O)[C@@]2(C)C[C@@H](C)[C@H](O2)[C@@H]1C`: the Activity in the data set with THP-1 [3] was 100 µM. Further, in the data set with THP-1 [8], the EC50 was found to be 7.7 µM.

With `CC[C@@H](O)[C@@](C)(O)[C@@H]1OC(=O)[C@H](C)[C@@H](O[C@H]2C[C@@](C)(OC)[C@@H](O)[C@H](C)O2)[C@H](C)[C@@H](O[C@@H]2O[C@H](C)C[C@H](N(C)C)[C@H]2OC(C)=O)[C@@]2(C)C[C@@H](C)[C@H](O2)[C@@H]1C`, the Activity in the data set with THP-1 [3] amounted to 100 µM. The EC50 in the data set on THP-1 [8] is 16.1 µM.

The compound `CC[C@@H](O)[C@@](C)(O)[C@@H]1OC(=O)[C@H](C)[C@@H](O)[C@H](C)[C@@H](O[C@@H]2O[C@H](C)C[C@H](N(C)C)[C@H]2OC(C)=O)[C@@]2(C)C[C@@H](C)[C@H](O2)[C@@H]1C` showed an Activity in the data set on THP-1 [3] greater than 100 µM. Besides, the EC50 in the data set on THP-1 [8] was greater than 100 µM.

For `CC[C@H]1OC(=O)O[C@@]1(C)[C@@H]1OC(=O)[C@H](C)[C@@H](O)[C@H](C)[C@@H](O[C@@H]2O[C@H](C)C[C@H](N(C)C)[C@H]2OC(C)=O)[C@@]2(C)C[C@@H](C)[C@H](O2)[C@@H]1C`, in the data set with THP-1 [3], the Activity is greater than 100 µM. In addition, the EC50 with THP-1 [8] was 55.7 µM.

For `CC[C@H]1OC(=O)O[C@@]1(C)[C@@H]1OC(=O)[C@H](C)C(=O)[C@H](C)[C@@H](O[C@@H]2O[C@H](C)C[C@H](N(C)C)[C@H]2OC(C)=O)[C@@]2(C)C[C@@H](C)[C@H](O2)[C@@H]1C`, the Activity with THP-1 [3] was greater than 100 µM. The EC50 in the data set with THP-1 [8] was found to be 27.9 µM.

For the compound `CC[C@H]1OC(=O)O[C@@]1(C)[C@@H]1OC(=O)[C@H](C)C(=O)[C@H](C)[C@@H](O[C@@H]2O[C@H](C)C[C@H](N(C)C)[C@H]2O)[C@@]2(C)C[C@@H](C)[C@H](O2)[C@@H]1C`, the Activity with THP-1 [3] is greater than 100 µM. The EC50 in the data set with THP-1 [8] worked out at 26.3 µM.

As to `CC[C@H]1OC(=O)[C@H](C)[C@@H](O[C@H]2C[C@@](C)(OC)[C@@H](O)[C@H](C)O2)[C@H](C)[C@@H](O[C@@H]2O[C@H](C)C[C@H](N(C)C)[C@H]2O)[C@](C)(O)C[C@@H](C)C(=O)[C@H](C)[C@@H](O)[C@]1(C)O` [ERYTHROMYCIN], the MIC in data set [1] is no more than 0.5 µg/mL; in the data set on Klebsiella pneumoniae it was 32 µg/mL (≈ 43.6 µM); against Klebsiella aerogenes, 128 µg/mL (≈ 174 µM); with Escherichia coli it was 64 µg/mL (≈ 87.2 µM); in the data set with Micrococcus luteus [2], 1 µg/mL (≈ 1.36 µM); in the data set on Micrococcus luteus [4], no more than 0.5 µg/mL. Moreover, the MIC against Staphylococcus aureus [5] is no more than 0.5 µg/mL; in data set [6], 4 µg/mL (≈ 5.45 µM); against Serratia marcescens, 128 µg/mL (≈ 174 µM); against Staphylococcus aureus [7], 64 µg/mL (≈ 87.2 µM); in the data set with Staphylococcus aureus [9], no more than 0.5 µg/mL.

A word on the MIC: it is the lowest concentration that inhibits growth of the organism.

(Values after ChEMBL document CHEMBL1777670, “Novel 12-membered non-antibiotic macrolides from erythromycin A; EM900 series as novel leads for anti-inflammatory and/or immunomodulatory agents” (Bioorg Med Chem Lett, 2011).)
